Results taken from patent US11866518B2, “Bicyclic peptide ligands specific for TSLP” (BicycleTx Limited, priority 2020, dated 2024).
Like-named read-outs stand apart in the source and are kept apart here. *1 amine or outer side, *2 acyl side, *3 side chain or, on linkers, in order; H or OH if unused. Where a SMILES comes first, the peptide text is derived from it. Bridges are numbered along the chain shown (N, C = ends). TATA = O=C(CC[*:1])N1CN(C(=O)CC[*:2])CN(C(=O)CC[*:3])C1

Legend:
[1] = target: T1, TSLP (Homo sapiens, UniProt Q969D9); test: Human peripheral blood mononuclear cell assay (TSLP-induced CCL17/TARC); type: cell-based; design: host or cells: added to human PBMCs from healthy donors
T1 sequence (Q969D9 29-159): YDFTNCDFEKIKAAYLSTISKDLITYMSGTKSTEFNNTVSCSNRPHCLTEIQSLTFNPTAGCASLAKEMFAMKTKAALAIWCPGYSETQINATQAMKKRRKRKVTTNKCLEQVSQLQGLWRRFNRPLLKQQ
Method: Human peripheral blood mononuclear cells (PMBCs) were obtained from heparinized whole blood (healthy donors) by density gradient centrifugation using Lymphoprep (StemCell Technologies, Vancouver, BC) according to the manufacturers instructions. The PBMCs were washed twice with PBS containing 2 mM EDTA and 2% fetal calf serum (FCS) and reconstituted in RPMI containing 10% FCS and 2% PenStrep at a final concentration of 3 million cells/mL. This cell suspension (100 μL) was aliquoted into the wells of a 96-well flat bottom tissue culture plate. 5 μL of bicycle peptide or vehicle (0.1% DMSO in complete medium) was then added and mixed with 5 μL of TSLPvehicle (complete medium). […] The plate was incubated for 30 minutes are rt. 10 μL of this mixture was added to cells and the plate was incubated for 24 hours in a 10% CO2, humidified incubator at 37° C. The plate was centrifuged at 300×g for 5 min and the collected supernatants frozen at −20° C. for subsequent CCL17/TARC analysis.
CCL17/TARC was determined by MSD (MesoScale Discovery, Maryland, USA) according to the manufacturer's instructions.

[2] = target: T1, TSLP; test: Human TSLP Surface Plasmon Resonance (SPR) binding assay; design: The resulting construct spCD33-6×HN-TEV-hTSLP(29-159)-Avi; 6xHN tag with TEV site (N, cleaved yes); made in house; host or cells: Expi293F cells; settings: biotinylated human TSLP immobilized on streptavidin chip; 20° C.; steady-state or kinetic 1:1 fit; read-out: hTSLP SPR Kd

CC(=O)N[C@H]1CSCCC(=O)N2CN3CN(C2)C(=O)CCSC[C@H](NC(=O)[C@H](CC(=O)O)NC(=O)[C@H](CCC(=O)O)NC(=O)[C@H](CC(C)C)NC(=O)[C@H](Cc2c[nH]c4ccccc24)NC(=O)[C@H](CCC(N)=O)NC1=O)C(=O)N[C@@H](Cc1c[nH]c2ccccc12)C(=O)N[C@@H](CCCNC(=N)N)C(=O)NCC(=O)N[C@@H](Cc1ccc(Cl)cc1)C(=O)N[C@H](C(N)=O)CSCCC3=O [Example 14, Ac-(SEQ ID NO: 12)]
inhibition at 10 µM ([1]; read-out: CCL17 % Inhibition @ 10 μM, […] TSLP): 14%

CC(=O)N[C@H]1CSCCC(=O)N2CN3CN(C2)C(=O)CCSC[C@H](NC(=O)[C@H](CC(=O)O)NC(=O)[C@H](CCC(=O)O)NC(=O)[C@H](CC(C)C)NC(=O)[C@H](Cc2c[nH]c4ccccc24)NC(=O)[C@H](CCC(N)=O)NC1=O)C(=O)N[C@@H](Cc1c[nH]c2ccccc12)C(=O)N[C@@H](CCCNC(=N)N)C(=O)NCC(=O)N[C@@H](Cc1ccc(F)cc1)C(=O)N[C@H](C(N)=O)CSCCC3=O [Example 17, Ac-(SEQ ID NO: 15)]
inhibition at 10 µM ([1]; human PBMCs, 10 μM peptide, 50 pM TSLP, 24 hours, read-out: CCL17 % Inhibition @ 10 μM, 50 pM TSLP): 1%

CC(=O)N[C@H]1CSCCC(=O)N2CN3CN(C2)C(=O)CCSC[C@H](NC(=O)[C@H](CC(=O)O)NC(=O)[C@H](Cc2ccc(O)cc2)NC(=O)[C@H](CCC(=O)O)NC(=O)[C@H](Cc2c[nH]c4ccccc24)NC(=O)[C@H](Cc2c[nH]cn2)NC(=O)[C@H](Cc2c[nH]c4ccccc24)NC(=O)[C@H](CC(=O)O)NC1=O)C(=O)N[C@@H](Cc1c[nH]c2ccccc12)C(=O)N[C@@H](CC(C)C)C(=O)N[C@@H](CO)C(=O)N[C@H](C(N)=O)CSCCC3=O [Example 218, Ac-(SEQ ID NO: 144)]
Kd [2]: 2000 nM

CC(C)C[C@@H]1NC(=O)[C@H](Cc2c[nH]c3ccccc23)NC(=O)[C@@H]2CSCCC(=O)N3CN(CN(C3)C(=O)CCSC[C@H](NC(=O)[C@H](CC(=O)O)NC(=O)[C@H](CC(N)=O)NC(=O)[C@H](C)N)C(=O)N[C@@H](C(C)C)C(=O)N[C@@H](Cc3c[nH]c4ccccc34)C(=O)N[C@@H](Cc3c[nH]cn3)C(=O)N[C@@H](Cc3c[nH]c4ccccc34)C(=O)N[C@@H](CCC(=O)O)C(=O)N[C@@H](Cc3ccc(O)cc3)C(=O)N[C@@H](CC(=O)O)C(=O)N2)C(=O)CCSC[C@@H](C(=O)N[C@@H](C)C(N)=O)NC(=O)[C@H](CC(=O)O)NC1=O [Example 220, AND-(SEQ ID NO: 154)-A] (H-ANDCVWHWEYDCWLDCA-NH2; linker 4-12-16 via TATA; N-terminus and C-terminus assumed)
Kd [2]: 340 nM

CSCC[C@H](NC(=O)[C@H](CC(=O)O)NC(=O)CNC(=O)[C@@H]1CSCCC(=O)N2CN3CN(C2)C(=O)CCSC[C@H](N)C(=O)N[C@@H](CC(=O)O)C(=O)N[C@@H](Cc2c[nH]c4ccccc24)C(=O)N[C@@H](Cc2c[nH]cn2)C(=O)N[C@@H](Cc2c[nH]c4ccccc24)C(=O)N[C@@H](CCC(=O)O)C(=O)N[C@@H](Cc2ccc(O)cc2)C(=O)N[C@@H](CC(=O)O)C(=O)N[C@@H](CSCCC3=O)C(=O)N[C@@H](Cc2c[nH]c3ccccc23)C(=O)N[C@@H](CC(C)C)C(=O)N[C@@H](CO)C(=O)N1)C(=O)N[C@@H](CO)C(=O)N[C@H](C(=O)N[C@@H](CO)C(N)=O)C(C)C [Example 222, (SEQ ID NO: 144)-GDMSVS]
Kd [2]: 450 nM

CSCC[C@H](NC(=O)[C@H](CCC(=O)O)NC(=O)[C@H](CC(N)=O)NC(=O)[C@H](CC(=O)O)NC(=O)[C@H](Cc1ccc(O)cc1)NC(=O)[C@@H]1CSCCC(=O)N2CN3CN(C2)C(=O)CCSC[C@H](N)C(=O)N[C@@H](CC(=O)O)C(=O)N[C@@H](Cc2c[nH]c4ccccc24)C(=O)N[C@@H](Cc2c[nH]cn2)C(=O)N[C@@H](Cc2c[nH]c4ccccc24)C(=O)N[C@@H](CCC(=O)O)C(=O)N[C@@H](Cc2ccc(O)cc2)C(=O)N[C@@H](CC(=O)O)C(=O)N[C@@H](CSCCC3=O)C(=O)N[C@@H](Cc2c[nH]c3ccccc23)C(=O)N[C@@H](CC(C)C)C(=O)N[C@@H](CO)C(=O)N1)C(=O)N[C@@H](CO)C(N)=O [Example 223, (SEQ ID NO: 144)-YDNEMS]
Kd [2]: 3000 nM

CC(C)C[C@@H]1NC(=O)[C@H](Cc2c[nH]c3ccccc23)NC(=O)[C@@H]2CSCCC(=O)N3CN(CN(C3)C(=O)CCSC[C@H](N)C(=O)N[C@@H](CC(=O)O)C(=O)N[C@@H](Cc3c[nH]c4ccccc34)C(=O)N[C@@H](Cc3c[nH]cn3)C(=O)N[C@@H](Cc3c[nH]c4ccccc34)C(=O)N[C@@H](CCC(=O)O)C(=O)N[C@@H](Cc3ccc(O)cc3)C(=O)N[C@@H](CC(=O)O)C(=O)N2)C(=O)CCSC[C@@H](C(=O)N[C@@H](C)C(=O)N[C@@H](CC(N)=O)C(=O)N[C@@H](CO)C(=O)N[C@@H](CCC(=O)O)C(=O)N[C@@H](Cc2ccccc2)C(=O)N[C@@H](CCC(=O)O)C(N)=O)NC(=O)[C@H](CO)NC1=O [Example 227, (SEQ ID NO: 144)-ANSEFE]
Kd [2]: 740 nM

CC(C)C[C@@H]1NC(=O)[C@H](Cc2c[nH]c3ccccc23)NC(=O)[C@@H]2CSCCC(=O)N3CN(CN(C3)C(=O)CCSC[C@H](N)C(=O)N[C@@H](CC(=O)O)C(=O)N[C@@H](Cc3c[nH]c4ccccc34)C(=O)N[C@@H](Cc3c[nH]cn3)C(=O)N[C@@H](Cc3c[nH]c4ccccc34)C(=O)N[C@@H](CCC(=O)O)C(=O)N[C@@H](Cc3ccc(O)cc3)C(=O)N[C@@H](CC(=O)O)C(=O)N2)C(=O)CCSC[C@@H](C(=O)NCC(=O)N[C@@H](C)C(=O)NCC(=O)N[C@@H](CCC(=O)O)C(=O)N[C@@H](CO)C(=O)N[C@@H](CO)C(N)=O)NC(=O)[C@H](CO)NC1=O [Example 228, (SEQ ID NO: 144)-GAGESS]
Kd [2]: 2300 nM

CC(C)C[C@@H]1NC(=O)[C@H](CO)NC(=O)[C@@H](NC(=O)[C@H](C)N)CSCCC(=O)N2CN3CN(C2)C(=O)CCSC[C@@H](C(=O)N[C@@H](C)C(N)=O)NC(=O)[C@H]([C@@H](C)O)NC(=O)[C@H](Cc2c[nH]c4ccccc24)NC(=O)[C@H](Cc2c[nH]c4ccccc24)NC(=O)[C@H](CC(N)=O)NC(=O)[C@H](Cc2c[nH]cn2)NC(=O)[C@H](CSCCC3=O)NC(=O)[C@H](CO)NC(=O)[C@H](Cc2c[nH]c3ccccc23)NC(=O)[C@@H]2CCCN2C(=O)[C@H](CC(=O)O)NC1=O [Example 229, A-(SEQ ID NO: 156)-A] (H-ACSLDPWSCHNWWTCA-NH2; linker 2-9-15 via TATA; N-terminus and C-terminus assumed)
Kd [2]: 9900 nM

CC(C)C[C@@H]1NC(=O)[C@H](C)NC(=O)[C@@H](NC(=O)[C@H](C)N)CSCCC(=O)N2CN3CN(C2)C(=O)CCSC[C@H](NC(=O)[C@H](C(C)C)NC(=O)[C@H](Cc2c[nH]c4ccccc24)NC(=O)[C@@H]2CCCN2C(=O)[C@H](CC(=O)O)NC1=O)C(=O)N1CCC[C@H]1C(=O)N[C@@H](CCC(N)=O)C(=O)N[C@@H](Cc1c[nH]c2ccccc12)C(=O)N[C@@H](Cc1c[nH]c2ccccc12)C(=O)N[C@@H](CC(=O)O)C(=O)N[C@H](C(=O)N[C@@H](C)C(N)=O)CSCCC3=O [Example 230, A-(SEQ ID NO: 157)-A] (H-ACALDPWVCPQWWDCA-NH2; linker 2-9-15 via TATA; N-terminus and C-terminus assumed)
Kd [2]: 960 nM

CC(C)C[C@@H]1NC(=O)[C@@H]2CSCCC(=O)N3CN(CN(C3)C(=O)CCSC[C@@H](C(=O)N[C@@H](C)C(N)=O)NC(=O)[C@H](CCC(=O)O)NC(=O)[C@@H]3CCCN3C(=O)[C@H](CCC(N)=O)NC(=O)[C@H](Cc3ccc(O)cc3)NC(=O)[C@H](CC(C)C)NC1=O)C(=O)CCSC[C@H](NC(=O)[C@H](C)N)C(=O)N[C@@H](CCC(N)=O)C(=O)N[C@@H](CCC(=O)O)C(=O)N[C@@H](Cc1c[nH]cn1)C(=O)N[C@@H](CC(=O)O)C(=O)N[C@@H](Cc1c[nH]c3ccccc13)C(=O)N[C@@H](Cc1ccc(O)cc1)C(=O)N2 [Example 231, A-(SEQ ID NO: 158)-A] (H-ACQEHDWYCLLYQPECA-NH2; linker 2-9-16 via TATA; N-terminus and C-terminus assumed)
Kd [2]: 1800 nM

CC[C@H](C)[C@@H]1NC(=O)[C@H](Cc2c[nH]c3ccccc23)NC(=O)[C@@H]2CSCCC(=O)N3CN(CN(C3)C(=O)CCSC[C@@H](C(=O)N[C@@H](C)C(N)=O)NC(=O)[C@H](CC(C)C)NC(=O)[C@H]([C@@H](C)O)NC(=O)[C@H](CCCCN)NC(=O)[C@H](Cc3ccccc3)NC1=O)C(=O)CCSC[C@H](NC(=O)[C@H](C)N)C(=O)N[C@@H](CC(=O)O)C(=O)N[C@@H](CCC(=O)O)C(=O)N[C@@H](CC(C)C)C(=O)N[C@@H](CC(=O)O)C(=O)N[C@@H]([C@@H](C)CC)C(=O)N1CCC[C@H]1C(=O)N2 [Example 232, A-(SEQ ID NO: 159)-A] (H-ACDELDIPCWIFKTLCA-NH2; linker 2-9-16 via TATA; N-terminus and C-terminus assumed)
Kd [2]: 8300 nM

CC(=O)N[C@H]1CSCCC(=O)N2CN3CN(C2)C(=O)CCSC[C@@H]2NC(=O)[C@H](CC(=O)O)NC(=O)[C@H](CCC(=O)O)NC(=O)[C@H](CC(C)C)NC(=O)[C@H](CCn4cc(nn4)CC[C@H](NC(=O)[C@H](Cc4c[nH]c5ccccc45)NC2=O)C(=O)NCC(=O)N[C@@H](Cc2ccc(F)cc2)C(=O)N[C@H](C(N)=O)CSCCC3=O)NC(=O)[C@H](CCC(N)=O)NC1=O [Example 249]
Kd [2]: 1200 nM
